This passage reports EC50 and Emax results from patent US12630498B2 (Genzyme Corporation, priority 2019, dated 2026).

By EC50 is commonly meant the concentration at which the effect is half-maximal. A lower EC50 goes with an effect from little substance. By Emax is commonly meant the greatest response seen or fitted, relative to the assay's reference.

The target of this experiment is T1, human Cystic Fibrosis Transmembrane Conductance Regulator (CFTR) harboring the ΔF508 mutation (Homo sapiens, UniProt P13569, DEL508-508).
T1 construct: expressed in transfected cells; host or cells: H441 carcinoma line (G418-selected)
In words: H441 cell ΔF508-CFTR-HRP cell surface assay (Emax and EC50). Format: cell-based. The conditions noted are these: for Emax: NCI-H441, NA = Not active. An excerpt:
Example 315: H441 Cell Emax and EC50 Two cell lines were used, the H441 carcinoma line and the CFHBE41o- (41o-) human bronchial epithelial line. Both cell lines expressed human Cystic Fibrosis Transmembrane Conductance Regulator (CFTR) harboring the ΔF508 mutation and with an in-frame fusion in CFTR extracellular loop 4 of Horse Radish Peroxidase (HRP) under control of the CMV promoter. In the presence of the HRP tag, ΔF508-CFTR transported to the cell surface was detectable upon addition of an HRP substrate (Luminata Forte). Both cell types were cultivated at 37° C. with CO2. […] For both cell types, the medium was changed every other day unless the culture was at low % confluence. Cells were used for the assays at 75% confluence. To a polypropylene (PP) 384-well plate, 15 pls DMSO was added to all wells in columns 1-22 and 24 (low Control). 15 μls of 260 μM VX809 (Lumacaftor), Selleckchem […], was added to column 23 wells (high Control). 15 pls of 10 mM test compound or VX809 (control) were added to wells of row A. Serial dilutions of Row A compound were performed 2×15 pls in rows A through 0 (15-point). A PP, 384-well plate containing the appropriate cell culture medium was prepared for each assay plate with 100 pls per well. For the doxycycline-induced 41o-cells, doxycycline for both the assay plate and the medium dilution plate was added at 0.0005 mg/ml to the medium. Both cell lines were plated for the assay at 30 pls per 384-well at 3.4×10 e^5 cells per ml ( 10K cells/well). H441 cells were plated on opaque, white, Corning plate 3704. 41o-cells were plated on collagen-coated opaque, white, Corning plate 356665. For 41o-cells, doxycycline was added to the medium. Using FX (Beckman) protocol, 10 pls diluted compound or medium was added per well to the Assay Plate as: 2 pls DMSO Dilution plate well was diluted in 100 pls of the Medium Dilution Plate well, mixed, and 10 pls was transferred to the Assay Plate. The final assay dilution series was 24.5, 12.3, 6.1, 3.1, 1.5, 0.8, 0.4, 0.2, 0.1, 0.05, 0.02, 0.01, 0.006, 0.003, 0.001 and 0 μM. The 41o-assay plates were incubated at 37° C. w/CO2, the H441 assay plates were incubated at 27° C. w/CO2, each overnight for two nights. After being brought to room temperature, the assay plate liquid was removed. 30 uls of Luminata Forte (Millipore ELLUF0100) was added per well and incubated at room temperature for 10 min. The plates were then read on a Topcount, protocol LumiMatti (CPS, luminescence). The data was analyzed for % of maximum, maximum VX809 signal, and EC50 using Pearl and SPEED tools.

T1 sequence (P13569 with tags, fused parts or gaps DEL508-508): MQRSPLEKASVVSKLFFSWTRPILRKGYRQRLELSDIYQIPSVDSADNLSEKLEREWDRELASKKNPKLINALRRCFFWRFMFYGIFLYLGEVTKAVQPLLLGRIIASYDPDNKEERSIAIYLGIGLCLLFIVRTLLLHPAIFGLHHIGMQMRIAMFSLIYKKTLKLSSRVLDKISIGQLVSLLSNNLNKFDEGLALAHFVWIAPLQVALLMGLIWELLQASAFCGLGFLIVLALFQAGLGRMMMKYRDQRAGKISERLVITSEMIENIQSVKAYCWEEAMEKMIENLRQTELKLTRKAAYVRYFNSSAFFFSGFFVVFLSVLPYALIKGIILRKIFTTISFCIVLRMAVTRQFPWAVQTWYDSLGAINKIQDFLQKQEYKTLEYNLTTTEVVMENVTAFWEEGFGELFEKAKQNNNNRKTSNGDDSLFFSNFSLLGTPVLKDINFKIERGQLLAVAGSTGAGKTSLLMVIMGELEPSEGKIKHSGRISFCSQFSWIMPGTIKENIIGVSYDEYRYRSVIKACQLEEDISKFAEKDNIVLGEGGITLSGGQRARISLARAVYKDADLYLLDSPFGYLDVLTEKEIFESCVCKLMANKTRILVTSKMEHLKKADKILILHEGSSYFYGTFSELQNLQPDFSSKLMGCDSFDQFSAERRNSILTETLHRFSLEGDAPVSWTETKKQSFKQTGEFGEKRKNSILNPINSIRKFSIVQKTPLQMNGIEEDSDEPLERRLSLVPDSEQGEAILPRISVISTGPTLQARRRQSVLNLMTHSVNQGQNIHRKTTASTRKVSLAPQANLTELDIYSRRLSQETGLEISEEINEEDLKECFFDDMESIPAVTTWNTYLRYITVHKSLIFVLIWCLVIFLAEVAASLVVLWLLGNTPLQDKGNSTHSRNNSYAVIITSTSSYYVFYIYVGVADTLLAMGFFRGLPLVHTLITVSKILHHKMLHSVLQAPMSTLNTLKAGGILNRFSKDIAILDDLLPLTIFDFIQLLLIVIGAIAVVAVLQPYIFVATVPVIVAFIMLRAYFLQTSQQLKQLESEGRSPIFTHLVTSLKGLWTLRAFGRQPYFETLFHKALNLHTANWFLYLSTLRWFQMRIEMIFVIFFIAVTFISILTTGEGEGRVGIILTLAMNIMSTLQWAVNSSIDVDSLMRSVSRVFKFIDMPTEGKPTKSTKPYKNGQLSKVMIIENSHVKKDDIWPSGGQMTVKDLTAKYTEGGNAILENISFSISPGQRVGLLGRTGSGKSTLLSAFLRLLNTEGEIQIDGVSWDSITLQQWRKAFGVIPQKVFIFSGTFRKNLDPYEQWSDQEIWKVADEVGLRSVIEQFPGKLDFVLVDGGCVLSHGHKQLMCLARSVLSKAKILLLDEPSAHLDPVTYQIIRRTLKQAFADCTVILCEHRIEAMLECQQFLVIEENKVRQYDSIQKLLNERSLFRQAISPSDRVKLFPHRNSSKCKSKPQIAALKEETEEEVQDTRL

In turn, `CC(C)(C)OC(=O)C[C@H](NC(=O)c1ccc2ccccc2c1OCc1ccc(C(F)(F)F)cc1)C(=O)O` (stereo in doubt) [Example 151, 4-(tert-butoxy)-4-oxo-2-(1-((4-(trifluoromethyl)benzyl)oxy)-2-naphthamido)butanoic Acid] showed an EC50 of 13.4 µM and a maximal response (Emax) of 68.7%.

For the molecule `CC(OCc1ccccc1)[C@H](NC(=O)c1ccc2cc(F)ccc2c1OCc1ccc(OC(F)(F)F)cc1)C(=O)O` (stereo in doubt) [Example 192, O-benzyl-N-(6-fluoro-1-((4-(trifluoromethoxy)benzyl)oxy)-2-naphthoyl)-L-allothreonine], the Emax was determined as 10.6%.

`CC(OCc1ccccc1)[C@H](NC(=O)c1ccc2cc(F)ccc2c1OCc1nc2ccccc2s1)C(=O)O` (stereo in doubt) [Example 215, N-(1-(benzo[d]thiazol-2-ylmethoxy)-6-fluoro-2-naphthoyl)-O-benzyl-L-allothreonine] gave an EC50 of 5.7 µM and an Emax of 89.9%.

Regarding `CC(C)(C)[C@H](NC(=O)c1ccc2ccccc2c1OCc1ccc(C(F)(F)F)cn1)C(=O)O` [Example 2, (S)-3,3-dimethyl-2-(1-((5-(trifluoromethyl)pyridin-2-yl)methoxy)-2-naphthamido)butanoic Acid], the 50% effective concentration (EC50) was determined as 4.8 µM and the Emax turned out to be 151%.

Consider `O=C(N[C@H](C(=O)O)C12CC(C(F)(F)F)(C1)C2)c1ccc2ccccc2c1OCc1ccc(S(=O)(=O)C(F)(F)F)cc1` [Example 3, (S)-2-(3-(trifluoromethyl)bicyclo[1.1.1]pentan-1-yl)-2-(1-((4-((trifluoromethyl)sulfonyl)benzyl)oxy)-2-naphthamido)acetic Acid], for which the midpoint of the response, the EC50, lay at 2.2 µM and the Emax was 18.1%.

`O=C(N[C@H](C(=O)O)C12CC(C(F)(F)F)(C1)C2)c1ccc2cc(F)ccc2c1OCc1ccc(OC(F)(F)F)cc1` [Example 4, (S)-2-(6-fluoro-1-((4-(trifluoromethoxy)benzyl)oxy)-2-naphthamido)-2-(3-(trifluoromethyl)bicyclo[1.1.1]pentan-1-yl)acetic Acid] came in with an EC50 of 0.7 µM and an Emax of 37.2%.

Take `CC(C)(c1ccccc1)[C@H](NC(=O)c1ccc2cc(F)ccc2c1OCC1CCC(F)(F)CC1)C(=O)O` [Example 7, (S)-2-(1-((4,4-difluorocyclohexyl)methoxy)-6-fluoro-2-naphthamido)-3-methyl-3-phenylbutanoic Acid]: the EC50 was determined as 2.4 µM and the Emax stood at 51.9%.

Consider `O=C(N[C@H](C(=O)O)C12CC(C(F)(F)F)(C1)C2)c1ccc2cc(F)ccc2c1OCc1ccc(C(F)(F)F)cc1` [Example 15, (S)-2-(6-fluoro-1-((4-(trifluoromethyl)benzyl)oxy)-2-naphthamido)-2-(3-(trifluoromethyl)bicyclo[1.1.1]pentan-1-yl)acetic Acid], for which the EC50 came out at 1.7 µM and the Emax turned out to be 48.4%.

`CC(C)(c1ccccc1)[C@H](NC(=O)c1ccc2cc(F)ccc2c1OCc1ccc(SC(F)(F)F)cc1)C(=O)O` [Example 22, (S)-2-(6-fluoro-1-((4-((trifluoromethyl)thio)benzyl)oxy)-2-naphthamido)-3-methyl-3-phenylbutanoic Acid] gave an EC50 of 0.3 µM and an Emax of 63.6%.

In the case of `CC(C)(c1ccccc1)[C@H](NC(=O)c1ccc2ccccc2c1OCc1ccc(S(C)(=O)=O)cc1)C(=O)O` [Example 23, (S)-3-methyl-2-(1-((4-(methylsulfonyl)benzyl)oxy)-2-naphthamido)-3-phenylbutanoic Acid], the response was half-maximal at 9.8 µM (EC50) and the Emax was found to be 29.2%.

Regarding `O=C(N[C@H](C(=O)O)C12CC(C(F)(F)F)(C1)C2)c1ccc2ccccc2c1OCc1ccc(S(F)(F)(F)(F)F)cc1` [Example 24, (S)-2-(1-((4-(pentafluoro-λ^6-sulfanyl)benzyl)oxy)-2-naphthamido)-2-(3-(trifluoromethyl)bicyclo[1.1.1]pentan-1-yl)acetic Acid], a half-maximal effect (EC50) was put at 1.1 µM and the Emax worked out at 66.1%.

In turn, `CC(C)(C)[C@H](NC(=O)c1ccc2ccccc2c1OCC1CCC(CO)CC1)C(=O)O` (stereo partly drawn) [Example 29, (S)-2-(1-((4-(hydroxymethyl)cyclohexyl)methoxy)-2-naphthamido)-3,3-dimethylbutanoic Acid] returned an Emax of 27.8%.

In the case of `CC1([C@H](NC(=O)c2ccc3cc(F)ccc3c2OCc2ccc(OC(F)(F)F)cc2)C(=O)O)CC1` [Example 30, (S)-2-(6-fluoro-1-((4-(trifluoromethoxy)benzyl)oxy)-2-naphthamido)-2-(1-methylcyclopropyl)acetic Acid], the 50% effective concentration (EC50) is 2 µM and the Emax was found to be 57.5%.

`CCC(C)(C)[C@H](NC(=O)c1ccc2cc(OC)ccc2c1OCc1ccc(SC(F)(F)F)cc1)C(=O)O` [Example 32, (S)-2-(6-methoxy-1-((4-((trifluoromethyl)thio)benzyl)oxy)-2-naphthamido)-3,3-dimethylpentanoic Acid] returned an EC50 of 1.5 µM and an Emax of 44.3%.

On to `CCC(C)(C)[C@H](NC(=O)c1ccc2cc(F)ccc2c1OCC1CCC(F)(F)CC1)C(=O)O` [Example 34, (S)-2-(1-((4,4-difluorocyclohexyl)methoxy)-6-fluoro-2-naphthamido)-3,3-dimethylpentanoic Acid], for which the EC50 stood at 3.8 µM and the Emax came to 78.4%.

For the molecule `COc1ccc2c(OCc3ccc(C(F)(F)F)cc3)c(C(=O)N[C@H](C(=O)O)C(C)(C)C)ccc2c1` [Example 38, (S)-2-(6-methoxy-1-((4-(trifluoromethyl)benzyl)oxy)-2-naphthamido)-3,3-dimethylbutanoic Acid], a half-maximal response (EC50) required 1.1 µM and the Emax was found to be 80.8%.

The molecule `CC1(C(NC(=O)c2ccc3ccccc3c2OC[C@H]2CC[C@@H](C(F)(F)F)CC2)C(=O)O)CCCCC1` (stereo partly shown) [Example 39, 2-(1-methylcyclohexyl)-2-(1-(((1s,4s)-4-(trifluoromethyl)cyclohexyl)methoxy)-2-naphthamido)acetic Acid] came in with an EC50 of 15.4 µM and an Emax of 60.7%.

`CC1(C(NC(=O)c2ccc3ccccc3c2OCc2ccc(S(C)(=O)=O)cc2)C(=O)O)CCCCC1` (stereo not shown) [Example 44, 2-(1-methylcyclohexyl)-2-(1-((4-(methylsulfonyl)benzyl)oxy)-2-naphthamido)acetic Acid] registered an EC50 of 5.1 µM and an Emax of 19.9%.

Molecule `CC(C)(C)[C@H](NC(=O)c1ccc2ccccc2c1OCc1ccc(Br)cc1)C(=O)O` [Example 46, (S)-2-(1-((4-bromobenzyl)oxy)-2-naphthamido)-3,3-dimethylbutanoic Acid] yielded an EC50 of 3.5 µM and an Emax of 26.9%.

The molecule `C=C(C)C1CC=C(COc2c(C(=O)N[C@H](C(=O)O)C(C)(C)C)ccc3ccccc23)CC1` (stereo partly drawn) [Example 49, (2S)-3,3-dimethyl-2-(1-((4-(prop-1-en-2-yl)cyclohex-1-en-1-yl)methoxy)-2-naphthamido)butanoic Acid] registered an EC50 of 1.5 µM and an Emax of 33.5%.

Consider `CCC(C)(C)[C@H](NC(=O)c1ccc2ccccc2c1OCc1ccc(S(C)(=O)=O)cc1)C(=O)O` [Example 53, (S)-3,3-dimethyl-2-(1-((4-(methylsulfonyl)benzyl)oxy)-2-naphthamido)pentanoic Acid], for which it took 22.9 µM to reach a half-maximal effect (EC50) and the Emax is 19.8%.

As for `CC1(C(NC(=O)c2ccc3cc(F)ccc3c2OCC2CCC(F)(F)CC2)C(=O)O)CCCCC1` (stereo not shown) [Example 54, 2-(1-((4,4-difluorocyclohexyl)methoxy)-6-fluoro-2-naphthamido)-2-(1-methylcyclohexyl)acetic Acid], a half-maximal response (EC50) required 2.4 µM and the Emax is 56.1%.

As to `CC1(C(NC(=O)c2ccc3cc(F)ccc3c2OCc2ccc(C(F)(F)F)cc2)C(=O)O)CC1` (stereo not shown) [Example 60, 2-(6-fluoro-1-((4-(trifluoromethyl)benzyl)oxy)-2-naphthamido)-2-(1-methylcyclopropyl)acetic Acid], the EC50 was 1.6 µM and the Emax came to 90.3%.

Molecule `COc1ccc2c(OCc3ccc(SC(F)(F)F)cc3)c(C(=O)N[C@H](C(=O)O)C(C)(C)C)ccc2c1` [Example 63, (S)-2-(6-methoxy-1-((4-((trifluoromethyl)thio)benzyl)oxy)-2-naphthamido)-3,3-dimethylbutanoic Acid] came in with an EC50 of 1.5 µM and an Emax of 43.6%.
